Active and inactive are the calls of the source.
Legend:
[1] = molecular target: T1, Alkaline phosphatase, tissue-nonspecific isozyme (Homo sapiens, UniProt P05186); assay: TNAP enzyme inhibition by screening hits, dose response, selectivity assay for mouse IAP inhibitor project, biochemical, human TNAP, uHTS hits (AID 488906); assay type: functional
T1 sequence (P05186 whole entry): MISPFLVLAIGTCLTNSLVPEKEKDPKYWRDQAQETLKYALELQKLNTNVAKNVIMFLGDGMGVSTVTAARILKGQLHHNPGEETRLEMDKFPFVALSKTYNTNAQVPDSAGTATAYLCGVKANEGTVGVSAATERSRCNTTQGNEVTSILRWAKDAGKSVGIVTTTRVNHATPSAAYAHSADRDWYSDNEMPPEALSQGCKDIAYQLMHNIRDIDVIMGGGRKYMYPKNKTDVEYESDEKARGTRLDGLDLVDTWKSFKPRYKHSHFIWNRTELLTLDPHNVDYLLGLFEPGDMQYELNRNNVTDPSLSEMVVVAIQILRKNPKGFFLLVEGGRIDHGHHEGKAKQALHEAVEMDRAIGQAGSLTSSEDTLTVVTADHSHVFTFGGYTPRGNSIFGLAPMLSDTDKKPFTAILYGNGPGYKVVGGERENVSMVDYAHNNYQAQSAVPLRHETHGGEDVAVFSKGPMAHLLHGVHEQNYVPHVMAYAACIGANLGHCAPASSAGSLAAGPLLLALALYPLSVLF

[2] = molecular target: Intestinal-type alkaline phosphatase (Mus musculus, UniProt P24822); assay: PubChem AID 488785; assay type: functional
[3] = molecular target: Intestinal-type alkaline phosphatase (Homo sapiens, UniProt P09923); assay: inhibition of human intestinal alkaline phosphatase – biochemical, dose response (AID 488876); assay type: functional
[4] = molecular target: Cytochrome P450 2D6 (Homo sapiens, UniProt P10635);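 further: CYP2D6 member of a cytochrome P450 panel assay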
[5] = viability of uninfected HEp-2 cells – cell-based, HTS, cytotoxicity control for RSV inhibitor project, dose response (AID 2410); assay type: functional; conditions: human respiratory syncytial virus
[6] = molecular target: T2, Ubiquitin-conjugating enzyme E2 N (Homo sapiens, UniProt P61088); assay type: functional
T2 sequence (P61088 whole entry): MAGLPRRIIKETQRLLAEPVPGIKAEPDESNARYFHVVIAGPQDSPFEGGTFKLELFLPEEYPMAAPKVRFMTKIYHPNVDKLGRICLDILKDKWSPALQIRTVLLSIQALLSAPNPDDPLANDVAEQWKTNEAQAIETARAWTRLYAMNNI

[7] = molecular target: Bcl-2-related protein A1 (Mus musculus, UniProt Q07440); assay type: functional;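 further: confirmatory dose–response counterscreen on Bfl-1, used to check hits from a UBC13 polyubiquitin inhibitor campaign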
[8] = molecular target: T2, Ubiquitin-conjugating enzyme E2 N; assay type: functional; remark: listed apart in the source
[9] = molecular target: Glucose-6-phosphate 1-dehydrogenase (Homo sapiens, UniProt P11413); assay: inhibition of Homo sapiens G6PD, dose series – biochemical, fluorescence, selectivity assay for P. falciparum G6PD inhibitor project, dose response (AID 504792); assay type: functional
[10] = test system: A-375; assay: proliferation inhibition in MITF-low A375 cells – cell-based, cherry-pick samples, set 2, counter-screen for MITF modulator project, dose response (AID 540335); assay type: functional; conditions: Homo sapiens
[11] = test system: A-375; assay: MITF: Counter assay: A375 proliferation Measured in Cell-Based System Using Plate Reader - 2084-03_Inhibitor_Dose_DryPowder_Activity. [Related pubchem assays (depositor defined):AID488944]; assay type: functional; conditions: Homo sapiens
[12] = molecular target: Large T antigen (Simian virus 40, UniProt P03070); assay type: functional, Betapolyomavirus macacae;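 further: Confirmatory-stage PubChem screen for compounds that inhibit SV40 T antigen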
[13] = molecular target: Induced myeloid leukemia cell differentiation protein Mcl-1 (Homo sapiens, UniProt Q07820); assay type: functional
[14] = molecular target: Hepatocyte nuclear factor 4-alpha (Homo sapiens, UniProt P41235); assay type: functional, cell-based;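 further: biochemical luminescence-based dose-response counterscreen measuring inhibition of HNF4 dimerization, run alongside a screen for blockers of ABHD5–perilipin-5 interaction; split luciferase complementation of HNF4 fusion proteins in cell lysate measuring dimerization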
[15] = molecular target: T3, Mannose-6-phosphate isomerase (Homo sapiens, UniProt P34949); assay: MPI inhibition at elevated mannose 6-phosphate – biochemical, fluorescence intensity, high mannose 6-phosphate, primary screen (AID 1220)
T3 sequence (P34949 whole entry): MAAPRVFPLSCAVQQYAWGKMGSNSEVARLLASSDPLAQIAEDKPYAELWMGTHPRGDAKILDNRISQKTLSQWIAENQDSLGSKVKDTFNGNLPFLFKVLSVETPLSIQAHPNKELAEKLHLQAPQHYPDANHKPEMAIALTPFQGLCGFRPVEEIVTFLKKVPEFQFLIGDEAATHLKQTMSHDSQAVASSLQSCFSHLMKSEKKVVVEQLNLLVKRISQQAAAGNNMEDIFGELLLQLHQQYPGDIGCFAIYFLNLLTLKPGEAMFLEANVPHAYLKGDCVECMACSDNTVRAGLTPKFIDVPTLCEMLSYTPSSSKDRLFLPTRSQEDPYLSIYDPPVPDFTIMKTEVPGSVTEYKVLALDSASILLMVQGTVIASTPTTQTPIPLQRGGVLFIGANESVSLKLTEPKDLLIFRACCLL

[16] = molecular target: Melanocortin receptor 4 (Homo sapiens, UniProt P32245); assay type: functional, cell-based;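 further: Cell-based assay with luminescence read-out, confirmatory dose-response testing for agonist activity of biased ligands at MC4R; human U2OS cells with tagged receptor and beta-arrestin; potency of agonists that increase receptor coupling to beta-arrestin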
[17] = NIH-3T3 fibroblast cytotoxicity, dose response, cytotoxicity control, cell-based, fluorescence, Alamar Blue, secondary assay (AID 2327); assay type: functional;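 further: NIH-3T3 mouse fibroblasts cultured with fluconazole at 8 µg/mL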
[18] = molecular target: ATP-dependent molecular chaperone HSP82 (Candida albicans (strain WO-1) (Yeast), UniProt C4YTQ8); assay: steroid-induced GRE reporter decrease in yeast – S. cerevisiae, luminescence, Hsp90 inhibitor project, dose response (AID 2400); assay type: functional, cell-based;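 further: beta-galactosidase luminescence from glucocorticoid response element reporter as proxy for Hsp90 function; inhibitor potency where signal loss means Hsp90 inhibition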
[19] = molecular target: T4, Serine/threonine-protein phosphatase (Candida dubliniensis (strain CD36 / CBS 7987 / NCPF 3949 / NRRLY-17841) (Yeast), UniProt B9W6M3); assay: blockers of CaCl2-induced CDRE-lacZ signaling – S. cerevisiae, luminescence, secondary, dose response (AID 2388); assay type: functional, cell-based;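 further: yeast reporter cells carrying a calcineurin-responsive lacZ construct stimulated with calcium chloride; luminescent beta-galactosidase reporter signal in whole cells rather than isolated phosphatase activity; potency for inhibition where a drop in reporter signal means calcineurin blockade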
T4 sequence (B9W6M3 whole entry): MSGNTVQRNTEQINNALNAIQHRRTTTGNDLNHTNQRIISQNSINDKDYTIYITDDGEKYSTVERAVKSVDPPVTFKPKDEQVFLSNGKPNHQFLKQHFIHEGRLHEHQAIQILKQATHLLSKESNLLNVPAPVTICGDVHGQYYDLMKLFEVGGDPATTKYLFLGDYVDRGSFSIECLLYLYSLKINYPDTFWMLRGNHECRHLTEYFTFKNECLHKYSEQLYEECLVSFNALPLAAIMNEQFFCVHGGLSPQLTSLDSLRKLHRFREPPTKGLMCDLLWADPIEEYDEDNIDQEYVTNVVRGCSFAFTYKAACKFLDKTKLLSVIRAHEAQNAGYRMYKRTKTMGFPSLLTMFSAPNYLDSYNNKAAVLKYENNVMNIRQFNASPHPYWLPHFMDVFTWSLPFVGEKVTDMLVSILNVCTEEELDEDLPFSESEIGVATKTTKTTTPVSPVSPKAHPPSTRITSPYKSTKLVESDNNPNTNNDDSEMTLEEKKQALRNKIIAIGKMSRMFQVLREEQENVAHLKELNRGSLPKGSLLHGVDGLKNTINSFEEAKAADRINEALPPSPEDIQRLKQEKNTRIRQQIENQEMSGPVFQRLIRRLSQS

[20] = molecular target: Genome polyprotein (dengue virus type 2, UniProt P29990); assay: flavivirus cap methylation enzyme inhibition – biochemical, confirmation dose response, primary screen (AID 588689); assay type: functional
[21] = fluconazole-exposed Candida albicans growth modulators – fluorescence, retest, confirmation (AID 2467); assay type: functional, cell-based
[22] = molecular target: T4, Serine/threonine-protein phosphatase; assay: Fluorescence Cell-Based Secondary Assay to Identify Inhibitors of Calcineurin. [Related pubchem assays (depositor defined):AID1979, AID2007]; assay type: functional
[23] = molecular target: Heat shock protein HSP 90-alpha (Homo sapiens, UniProt P07900); assay type: functional, organism-based
[24] = molecular target: 5-hydroxytryptamine receptor 5A (Homo sapiens, UniProt P47898); assay: Counterscreen for agonists of OPRM1-OPRD1 heterodimerization: luminescence-based cell-based high throughput dose response assay to identify agonists of 5-hydroxytryptamine (serotonin) 5A receptor (HTR5A). [Related pubchem assays (depositor defined):AID504326, AID504355, AID504692, AID504904, AID504905]; assay type: functional
[25] = molecular target: Delta-type opioid receptor (Homo sapiens, UniProt P41143); assay: Counterscreen for agonists of heterodimerization of the mu 1 (OPRM1) and delta 1 (OPRD1) opioid receptors: Luminescence-based cell-based high throughput dose response assay to identify agonists of OPRD1 homodimerization. [Related pubchem assays (depositor defined):AID504326, AID504355, AID504692, AID504904, AID504905]; assay type: functional
[26] = molecular target: T5, Short transient receptor potential channel 4 (Mus musculus, UniProt Q9QUQ5); assay: calcium entry via TRPC4 opening agents – cell-based, HEK293 TRPC4/mu-opioid, Fluo-4 calcium, dose response (AID 434937); assay type: functional
T5 sequence (Q9QUQ5 whole entry): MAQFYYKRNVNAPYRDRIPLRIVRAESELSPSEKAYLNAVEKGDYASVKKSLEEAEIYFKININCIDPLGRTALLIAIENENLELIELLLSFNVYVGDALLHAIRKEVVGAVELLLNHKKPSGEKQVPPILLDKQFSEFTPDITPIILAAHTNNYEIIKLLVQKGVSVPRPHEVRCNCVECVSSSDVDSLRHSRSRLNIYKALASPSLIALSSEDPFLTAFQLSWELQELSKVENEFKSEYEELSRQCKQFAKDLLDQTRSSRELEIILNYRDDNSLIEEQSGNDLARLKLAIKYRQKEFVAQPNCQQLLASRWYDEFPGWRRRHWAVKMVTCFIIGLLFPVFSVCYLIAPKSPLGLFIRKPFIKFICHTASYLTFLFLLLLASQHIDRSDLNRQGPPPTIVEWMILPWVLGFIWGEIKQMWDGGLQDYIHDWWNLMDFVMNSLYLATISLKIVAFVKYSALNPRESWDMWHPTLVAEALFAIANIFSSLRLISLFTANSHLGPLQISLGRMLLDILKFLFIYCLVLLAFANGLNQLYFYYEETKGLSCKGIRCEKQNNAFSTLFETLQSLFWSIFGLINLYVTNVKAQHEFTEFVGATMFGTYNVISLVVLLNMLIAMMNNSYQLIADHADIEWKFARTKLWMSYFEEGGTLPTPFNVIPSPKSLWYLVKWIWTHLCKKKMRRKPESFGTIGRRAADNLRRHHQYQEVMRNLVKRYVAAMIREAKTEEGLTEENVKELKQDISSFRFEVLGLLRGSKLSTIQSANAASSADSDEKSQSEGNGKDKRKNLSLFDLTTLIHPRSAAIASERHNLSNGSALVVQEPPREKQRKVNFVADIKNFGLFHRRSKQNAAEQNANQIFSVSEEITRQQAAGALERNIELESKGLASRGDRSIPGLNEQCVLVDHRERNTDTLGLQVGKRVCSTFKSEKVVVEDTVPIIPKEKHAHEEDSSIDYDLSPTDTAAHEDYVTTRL

[27] = molecular target: Mu-type opioid receptor (Homo sapiens, UniProt P35372); assay: Counterscreen for agonists of heterodimerization of the mu 1 (OPRM1) and delta 1 (OPRD1) opioid receptors: Luminescence-based cell-based high throughput dose response assay to identify agonists of OPRM1 homodimerization.; assay type: functional;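 further: U2OS cells expressing OPRM1 and beta-arrestin as split beta-galactosidase partners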
Mu-type opioid receptor, sequence (P35372 whole entry): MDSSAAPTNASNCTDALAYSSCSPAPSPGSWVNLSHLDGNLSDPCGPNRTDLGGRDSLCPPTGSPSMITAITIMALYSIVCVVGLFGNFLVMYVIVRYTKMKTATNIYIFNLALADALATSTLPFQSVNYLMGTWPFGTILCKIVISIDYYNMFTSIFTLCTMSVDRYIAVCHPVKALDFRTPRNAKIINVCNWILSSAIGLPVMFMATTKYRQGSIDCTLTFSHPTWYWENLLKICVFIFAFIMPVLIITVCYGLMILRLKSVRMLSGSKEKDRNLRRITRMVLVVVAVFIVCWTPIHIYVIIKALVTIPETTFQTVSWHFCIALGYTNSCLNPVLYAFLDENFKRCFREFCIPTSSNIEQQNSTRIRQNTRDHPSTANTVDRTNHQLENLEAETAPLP

Intestinal-type alkaline phosphatase (Mus musculus, UniProt P24822), sequence (P24822 whole entry): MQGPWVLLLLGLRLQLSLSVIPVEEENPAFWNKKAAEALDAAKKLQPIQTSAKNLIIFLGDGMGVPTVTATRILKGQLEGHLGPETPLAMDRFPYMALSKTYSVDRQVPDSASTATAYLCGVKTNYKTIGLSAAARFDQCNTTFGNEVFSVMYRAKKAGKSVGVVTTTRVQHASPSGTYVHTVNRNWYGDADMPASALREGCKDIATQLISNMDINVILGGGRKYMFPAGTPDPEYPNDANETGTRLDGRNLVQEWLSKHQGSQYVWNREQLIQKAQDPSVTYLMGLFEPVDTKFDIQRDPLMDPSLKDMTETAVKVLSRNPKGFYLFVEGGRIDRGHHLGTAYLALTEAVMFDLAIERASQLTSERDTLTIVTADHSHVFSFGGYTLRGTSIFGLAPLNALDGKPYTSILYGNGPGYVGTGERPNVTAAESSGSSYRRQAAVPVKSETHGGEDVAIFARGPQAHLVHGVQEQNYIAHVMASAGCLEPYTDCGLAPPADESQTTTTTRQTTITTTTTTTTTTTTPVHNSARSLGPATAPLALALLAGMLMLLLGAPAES
5-hydroxytryptamine receptor 5A, sequence (P47898 whole entry): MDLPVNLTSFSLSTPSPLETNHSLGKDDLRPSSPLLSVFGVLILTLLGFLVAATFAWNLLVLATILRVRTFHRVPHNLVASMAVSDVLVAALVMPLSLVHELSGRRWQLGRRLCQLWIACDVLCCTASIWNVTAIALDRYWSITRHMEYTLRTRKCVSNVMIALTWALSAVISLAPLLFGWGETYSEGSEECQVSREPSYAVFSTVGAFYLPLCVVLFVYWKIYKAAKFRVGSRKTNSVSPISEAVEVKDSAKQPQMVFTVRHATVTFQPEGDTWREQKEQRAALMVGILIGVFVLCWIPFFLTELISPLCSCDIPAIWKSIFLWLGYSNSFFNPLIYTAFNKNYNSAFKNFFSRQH
Intestinal-type alkaline phosphatase (Homo sapiens, UniProt P09923), sequence (P09923 whole entry): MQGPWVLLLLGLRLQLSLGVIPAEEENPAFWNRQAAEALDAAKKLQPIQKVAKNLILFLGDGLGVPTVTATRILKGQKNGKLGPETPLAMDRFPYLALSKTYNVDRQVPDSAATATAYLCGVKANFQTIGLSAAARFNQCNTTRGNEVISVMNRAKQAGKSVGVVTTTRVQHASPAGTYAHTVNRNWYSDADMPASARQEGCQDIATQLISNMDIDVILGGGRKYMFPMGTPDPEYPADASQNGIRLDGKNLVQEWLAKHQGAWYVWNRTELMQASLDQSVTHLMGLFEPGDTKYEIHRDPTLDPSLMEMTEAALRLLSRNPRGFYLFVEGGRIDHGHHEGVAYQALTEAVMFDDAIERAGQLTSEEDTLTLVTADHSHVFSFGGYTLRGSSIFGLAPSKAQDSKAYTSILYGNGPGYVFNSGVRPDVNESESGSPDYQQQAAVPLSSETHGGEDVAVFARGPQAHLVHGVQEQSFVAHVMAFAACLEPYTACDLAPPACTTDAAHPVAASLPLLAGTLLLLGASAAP
Delta-type opioid receptor, sequence (P41143 whole entry): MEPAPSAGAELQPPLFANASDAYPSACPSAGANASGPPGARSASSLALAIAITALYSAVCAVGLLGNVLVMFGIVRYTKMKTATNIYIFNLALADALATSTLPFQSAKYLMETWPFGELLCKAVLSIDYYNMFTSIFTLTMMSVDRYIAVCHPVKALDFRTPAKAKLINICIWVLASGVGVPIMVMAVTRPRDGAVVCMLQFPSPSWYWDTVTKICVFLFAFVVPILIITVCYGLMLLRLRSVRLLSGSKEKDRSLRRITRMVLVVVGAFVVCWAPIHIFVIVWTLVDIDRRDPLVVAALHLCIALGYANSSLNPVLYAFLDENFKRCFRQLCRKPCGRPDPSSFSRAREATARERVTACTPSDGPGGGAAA
Glucose-6-phosphate 1-dehydrogenase, sequence (P11413 whole entry): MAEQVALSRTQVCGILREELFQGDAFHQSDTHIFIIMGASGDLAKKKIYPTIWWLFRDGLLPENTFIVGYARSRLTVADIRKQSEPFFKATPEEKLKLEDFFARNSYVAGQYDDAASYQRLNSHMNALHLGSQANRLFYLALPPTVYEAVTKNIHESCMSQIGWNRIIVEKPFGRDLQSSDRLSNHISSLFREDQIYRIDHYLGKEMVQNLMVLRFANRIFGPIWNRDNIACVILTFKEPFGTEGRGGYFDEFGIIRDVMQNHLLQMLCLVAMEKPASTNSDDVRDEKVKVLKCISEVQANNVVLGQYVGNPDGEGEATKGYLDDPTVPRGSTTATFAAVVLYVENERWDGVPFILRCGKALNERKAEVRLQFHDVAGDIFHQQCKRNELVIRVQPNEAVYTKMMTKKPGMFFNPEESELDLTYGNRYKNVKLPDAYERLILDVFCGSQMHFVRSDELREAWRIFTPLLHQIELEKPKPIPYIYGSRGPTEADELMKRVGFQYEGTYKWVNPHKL
ATP-dependent molecular chaperone HSP82, sequence (C4YTQ8 whole entry): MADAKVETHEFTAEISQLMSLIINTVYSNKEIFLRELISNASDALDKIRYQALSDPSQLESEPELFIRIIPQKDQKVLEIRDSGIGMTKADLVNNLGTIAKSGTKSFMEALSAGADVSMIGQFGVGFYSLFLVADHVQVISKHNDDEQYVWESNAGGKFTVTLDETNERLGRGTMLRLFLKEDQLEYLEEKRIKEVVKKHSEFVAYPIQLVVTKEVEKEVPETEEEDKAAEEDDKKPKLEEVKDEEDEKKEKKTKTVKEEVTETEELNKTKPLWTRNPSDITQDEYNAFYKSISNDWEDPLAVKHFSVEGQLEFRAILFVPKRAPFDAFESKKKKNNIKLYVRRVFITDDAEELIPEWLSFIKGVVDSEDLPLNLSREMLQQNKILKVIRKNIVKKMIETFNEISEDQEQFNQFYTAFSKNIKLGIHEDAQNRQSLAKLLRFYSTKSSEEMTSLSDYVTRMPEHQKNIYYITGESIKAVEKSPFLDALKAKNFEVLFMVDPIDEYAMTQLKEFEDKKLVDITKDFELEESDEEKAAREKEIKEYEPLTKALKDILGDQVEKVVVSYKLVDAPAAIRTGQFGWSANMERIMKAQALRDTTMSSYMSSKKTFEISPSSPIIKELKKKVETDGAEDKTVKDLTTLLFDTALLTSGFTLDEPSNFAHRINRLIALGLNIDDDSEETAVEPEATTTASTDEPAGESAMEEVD
Large T antigen, sequence (P03070 whole entry): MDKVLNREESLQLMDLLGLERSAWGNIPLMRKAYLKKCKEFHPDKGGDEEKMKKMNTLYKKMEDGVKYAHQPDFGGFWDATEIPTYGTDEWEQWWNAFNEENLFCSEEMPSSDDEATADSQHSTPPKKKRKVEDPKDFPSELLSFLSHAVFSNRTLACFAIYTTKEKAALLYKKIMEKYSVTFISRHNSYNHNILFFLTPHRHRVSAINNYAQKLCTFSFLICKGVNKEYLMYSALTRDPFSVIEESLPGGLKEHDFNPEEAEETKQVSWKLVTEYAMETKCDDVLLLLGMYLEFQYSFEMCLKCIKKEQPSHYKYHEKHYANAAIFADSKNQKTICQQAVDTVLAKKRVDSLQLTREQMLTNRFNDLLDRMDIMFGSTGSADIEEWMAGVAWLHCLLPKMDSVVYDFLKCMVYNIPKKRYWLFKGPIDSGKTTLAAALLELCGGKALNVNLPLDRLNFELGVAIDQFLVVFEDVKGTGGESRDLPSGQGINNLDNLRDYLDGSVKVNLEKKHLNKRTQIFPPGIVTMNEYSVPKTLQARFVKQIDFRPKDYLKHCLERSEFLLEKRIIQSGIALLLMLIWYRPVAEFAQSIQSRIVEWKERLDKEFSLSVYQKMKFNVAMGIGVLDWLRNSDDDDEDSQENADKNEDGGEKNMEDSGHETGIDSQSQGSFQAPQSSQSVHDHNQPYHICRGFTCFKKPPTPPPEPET
Cytochrome P450 2D6, sequence (P10635 whole entry): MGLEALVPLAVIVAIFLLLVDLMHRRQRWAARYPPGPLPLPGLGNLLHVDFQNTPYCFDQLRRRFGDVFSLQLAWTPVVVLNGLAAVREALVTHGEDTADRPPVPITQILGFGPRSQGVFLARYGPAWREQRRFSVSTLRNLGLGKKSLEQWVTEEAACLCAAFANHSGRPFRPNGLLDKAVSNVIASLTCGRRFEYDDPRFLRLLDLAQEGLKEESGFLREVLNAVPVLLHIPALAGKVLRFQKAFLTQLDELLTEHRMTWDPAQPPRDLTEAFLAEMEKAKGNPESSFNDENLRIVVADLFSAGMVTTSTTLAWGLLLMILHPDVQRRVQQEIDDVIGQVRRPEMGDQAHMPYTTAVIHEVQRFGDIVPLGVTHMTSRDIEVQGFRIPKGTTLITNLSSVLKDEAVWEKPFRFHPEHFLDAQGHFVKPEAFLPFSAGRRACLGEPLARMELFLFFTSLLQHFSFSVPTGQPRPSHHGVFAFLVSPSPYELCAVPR
Induced myeloid leukemia cell differentiation protein Mcl-1, sequence (Q07820 whole entry, the tested form may be a part): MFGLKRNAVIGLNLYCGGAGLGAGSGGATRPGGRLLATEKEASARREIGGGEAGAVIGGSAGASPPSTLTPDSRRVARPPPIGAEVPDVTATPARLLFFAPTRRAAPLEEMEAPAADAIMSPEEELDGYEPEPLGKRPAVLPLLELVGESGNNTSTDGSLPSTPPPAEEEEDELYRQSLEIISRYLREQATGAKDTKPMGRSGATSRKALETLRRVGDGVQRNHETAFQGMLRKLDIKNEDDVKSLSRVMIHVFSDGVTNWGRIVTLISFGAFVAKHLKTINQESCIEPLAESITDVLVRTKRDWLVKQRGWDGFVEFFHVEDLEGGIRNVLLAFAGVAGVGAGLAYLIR

## CC(/C=C/C1(O)C(C)CC(=O)CC1(C)C)OC1OC(CO)C(O)C(O)C1O (stereo unspecified)
[1]
  IC50: > 100 µM (inactive)
[2]
  IC50: 9.13 µM (active)
[3]
  IC50: > 100 µM (inactive)

## O=C(CCCn1c(=S)[nH]c2ccc(Br)cc2c1=O)N1CCN(c2ccccn2)CC1
[4]
  AC50: 15.8 µM (inconclusive)
[5]
  CC50: 23.6 µM (active)
[6]
  IC50: 19.6 µM (active)
[7]
  IC50: > 20 µM (inactive)
[8]
  IC50: > 20 µM (inactive)

## O=C(Nc1ccc(N2CCOCC2)c(Cl)c1)c1ccc(Cl)cc1
[9]
  IC50: > 80 µM (inactive)

## Cc1ccc2oc(=O)n(CCCOc3ccccc3)c2c1
[10]
  AC50: > 35 µM (active)
[11]
  AC50: > 35 µM (active)

## Cc1cccc(OCC(=O)Nc2cccc(O)c2)c1
[10]
  AC50: > 35 µM (active)
[11]
  AC50: > 35 µM (active)

## O=C1CC(c2ccc(O)c(O)c2)Oc2c1ccc(O)c2O (stereo unspecified)
[1]
  IC50: > 100 µM (inactive)
[12]
  IC50: 1.91 µM (active)
[2]
  IC50: 14.8 µM (active)
[13]
  IC50: 2.99 µM (active)
[3]
  IC50: 24.8 µM (active)

## Cc1ccc(C(=O)c2coc3c2C(=O)C(=O)c2ccccc2-3)cc1
[14]
  IC50: 3.8 µM (active)
[15]
  IC50: > 50 µM (not active)
[16]
  EC50: > 89.2 µM (inactive)
[17]
  EC50: 27.9 µM (active)
[18]
  EC50: 1.21 µM (active)
[19]
  EC50: 3.78 µM (active)
[20]
  IC50: 55 µM (active)
[21]
  EC50: 0.983 µM (active)
[22]
  EC50: 9.27 µM (active)
[23]
  AC50: 3.84 µM (active)

## Cc1ccc(/C=C/C(=O)N2CCN(S(=O)(=O)c3ccc(C)c(C)c3)CC2)o1
[9]
  IC50: > 80 µM (inactive)

## CN(C)C(CN=C(S)Nc1ccccc1Cl)c1cccnc1 (stereo unspecified)
[24]
  EC50: > 92.5 µM (inactive)
[25]
  EC50: 26.9 µM (inactive)
[26]
  EC50: 0.0333 µM (active)
[27]
  EC50: 3.64 µM (active)

## CCOC(=O)C1(c2ccccc2)CCN(CCC(=O)Nc2ccc(F)cc2)CC1
[24]
  EC50: > 92.5 µM (inactive)
[25]
  EC50: > 92.5 µM (inactive)
[27]
  EC50: > 92.5 µM (inactive)

— ChEMBL document CHEMBL1201862, “PubChem BioAssay data set” (2004)
